Experimental data published in patent publication US10485235B2, “Aryloxypyrimidinyl ethers as herbicides” (FMC Corporation, priority 2015, dated 2019).

Tests used:
Type in all cases: in vivo
[1] = test system: barnyardgrass (Echinochloa crus-galli); test: Test A preemergence, barnyardgrass; conditions: Preemergence, 0 to 100 scale (0 no effect, 100 complete control)
Outline: (§1)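 Ratings run 0–100, where 100 is complete control, and were scored visually against untreated plants about 10 days after treatment under greenhouse conditions. Formulated chemicals were sprayed either onto the soil surface after seeding (preemergence) or onto one- to two-leaf seedlings 2–10 cm high (postemergence).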

kochia (Kochia scoparia) [2] = test: Test A preemergence, kochia; conditions: Preemergence, 0 to 100 scale (0 no effect, 100 complete control)
Outline: as §1

[3] = test system: ragweed (common ragweed, Ambrosia elatior); test: Test A preemergence, ragweed; conditions: Preemergence, 0 to 100 scale (0 no effect, 100 complete control)
Outline: as §1

[4] = test system: ryegrass, Italian (Italian ryegrass, Lolium multiflorum); test: Test A preemergence, Italian ryegrass; conditions: Preemergence, 0 to 100 scale (0 no effect, 100 complete control)
Outline: as §1

[5] = test system: foxtail, giant (giant foxtail, Setaria faberii); test: Test A preemergence, giant foxtail; conditions: Preemergence, 0 to 100 scale (0 no effect, 100 complete control)
Outline: as §1

[6] = test system: pigweed (Amaranthus retroflexus); test: Test A preemergence, pigweed; conditions: Preemergence, 0 to 100 scale (0 no effect, 100 complete control)
Outline: as §1

[7] = test system: barnyardgrass (Echinochloa crus-galli); test: Test A postemergence, barnyardgrass; conditions: postemergence, 0 to 100 scale, 0 is no effect, 100 is complete control, approximately 10 days
Outline: as §1

kochia (Kochia scoparia) [8] = test: Test A postemergence, kochia; conditions: postemergence, 0 to 100 scale, 0 is no effect, 100 is complete control, approximately 10 days
Outline: as §1

[9] = test system: ragweed (common ragweed, Ambrosia elatior); test: Test A postemergence, ragweed; conditions: postemergence, 0 to 100 scale, 0 is no effect, 100 is complete control, approximately 10 days
Outline: as §1

[10] = test system: ryegrass, Italian (Italian ryegrass, Lolium multiflorum); test: Test A postemergence, Italian ryegrass; conditions: postemergence, 0 to 100 scale, 0 is no effect, 100 is complete control, approximately 10 days
Outline: as §1

[11] = test system: foxtail, giant (giant foxtail, Setaria faberii); test: Test A postemergence, giant foxtail; conditions: postemergence, 0 to 100 scale, 0 is no effect, 100 is complete control, approximately 10 days
Outline: as §1

[12] = test system: pigweed (Amaranthus retroflexus); test: Test A postemergence, pigweed; conditions: postemergence, 0 to 100 scale, 0 is no effect, 100 is complete control, approximately 10 days
Outline: as §1

[13] = test system: wheat (Triticum aestivum); test: Test A postemergence, wheat; conditions: postemergence, 0 to 100 scale, 0 is no effect, 100 is complete control, approximately 10 days
Outline: as §1

corn (Zea mays) = test: Test A postemergence, corn; conditions: postemergence, 0 to 100 scale, 0 is no effect, 100 is complete control, approximately 10 days
Outline: as §1

[14] = test system: blackgrass (Alopecurus myosuroides); test: Test A postemergence, blackgrass; conditions: postemergence, 0 to 100 scale, 0 is no effect, 100 is complete control, approximately 10 days
Outline: as §1

[15] = test system: galium (catchweed bedstraw, Galium aparine); test: Test A postemergence, galium; conditions: postemergence, 0 to 100 scale, 0 is no effect, 100 is complete control, approximately 10 days
Outline: as §1

rice (Oryza sativa) = test: Test B flooded paddy test, rice; conditions: 250 g ai/ha, Flood; visual rating after 13 to 15 days; scale 0 to 100, 0 is no effect, 100 is complete control
Outline: (§2)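 Plants grown to 2-leaf stage, pots flooded to 3 cm above soil and compound applied directly to paddy water, depth maintained throughout. After 13-15 days in greenhouse, visual rating against untreated controls on 0-100 scale (0 no effect, 100 complete control).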

[16] = test system: sedge, umbrella (small-flower umbrella sedge, Cyperus difformis); test: Test B flooded paddy test, umbrella sedge; conditions: 250 g ai/ha, Flood; visual rating after 13 to 15 days; scale 0 to 100, 0 is no effect, 100 is complete control
Outline: as §2

[17] = test system: ducksalad (Heteranthera limosa); test: Test B flooded paddy test, ducksalad; conditions: 250 g ai/ha, Flood; visual rating after 13 to 15 days; scale 0 to 100, 0 is no effect, 100 is complete control
Outline: as §2

[18] = test system: barnyardgrass (Echinochloa crus-galli); test: Test B flooded paddy test, barnyardgrass; conditions: 250 g ai/ha, Flood; visual rating after 13 to 15 days; scale 0 to 100, 0 is no effect, 100 is complete control
Outline: as §2

Compound | Plant response rating, Barnyardgrass ([1]; 125 g ai/ha) | Plant response rating, Kochia (kochia (Kochia scoparia) [2]; 125 g ai/ha) | Plant response rating, Ragweed ([3]; 125 g ai/ha) | Plant response rating, Ryegrass, Italian ([4]; 125 g ai/ha) | Plant response rating, Foxtail, Giant ([5]; 125 g ai/ha) | Plant response rating, Pigweed ([6]; 125 g ai/ha) | Plant response rating, Barnyardgrass ([7]; 125 g ai/ha) | Plant response rating, Kochia (kochia (Kochia scoparia) [8]; 125 g ai/ha) | Plant response rating, Ragweed ([9]; 125 g ai/ha) | Plant response rating, Ryegrass, Italian ([10]; 125 g ai/ha) | Plant response rating, Foxtail, Giant ([11]; 125 g ai/ha) | Plant response rating, Pigweed ([12]; 125 g ai/ha) | Plant response rating, Wheat ([13]; 125 g ai/ha) | Plant response rating, Corn (corn (Zea mays); 125 g ai/ha) | Plant response rating, Blackgrass ([14]; 125 g ai/ha) | Plant response rating, Galium ([15]; 125 g ai/ha) | Plant response rating, Rice (rice (Oryza sativa)) | Plant response rating, Sedge, Umbrella [16] | Plant response rating, Ducksalad [17] | Plant response rating, Barnyardgrass [18] | further results
Cl/C=C/COc1c(Cl)cccc1Oc1ncc(Cl)cn1 [Compound 48] | 60 | 80 | 0 | 10 | 80 | 60 | 50 | 100 | 10 | 0 | 60 | 80 | 10 | 20 | 10 | 30 | 20 | 70 | 70 | 20 | Plant response rating, Barnyardgrass ([1]; 31 g ai/ha): 10; Plant response rating, Kochia (kochia (Kochia scoparia) [2]; 31 g ai/ha): 0; Plant response rating, Ragweed ([3]; 31 g ai/ha): 0; Plant response rating, Ryegrass, Italian ([4]; 31 g ai/ha): 0; Plant response rating, Foxtail, Giant ([5]; 31 g ai/ha): 30; Plant response rating, Pigweed ([6]; 31 g ai/ha): 0; Plant response rating, Barnyardgrass ([7]; 31 g ai/ha): 10; Plant response rating, Kochia (kochia (Kochia scoparia) [8]; 31 g ai/ha): 60; Plant response rating, Ragweed ([9]; 31 g ai/ha): 0; Plant response rating, Ryegrass, Italian ([10]; 31 g ai/ha): 0; Plant response rating, Foxtail, Giant ([11]; 31 g ai/ha): 20; Plant response rating, Pigweed ([12]; 31 g ai/ha): 50; Plant response rating, Wheat ([13]; 31 g ai/ha): 0; Plant response rating, Corn (corn (Zea mays); 31 g ai/ha): 10; Plant response rating, Blackgrass ([14]; 31 g ai/ha): 0; Plant response rating, Galium ([15]; 31 g ai/ha): 10
N#CCCCOc1c(F)cccc1Oc1ncc(Cl)cn1 [Compound 24] | 20 | 60 | 0 | 0 | 30 | 90 | 0 | 80 | 10 | 0 | 0 | 40 | 0 | 0 | 0 | 20 | 0 | 0 | 30 | 0 | Plant response rating, Barnyardgrass ([1]; 500 g ai/ha): 70; Plant response rating, Kochia (kochia (Kochia scoparia) [2]; 500 g ai/ha): 100; Plant response rating, Ragweed ([3]; 500 g ai/ha): 70; Plant response rating, Ryegrass, Italian ([4]; 500 g ai/ha): 20; Plant response rating, Foxtail, Giant ([5]; 500 g ai/ha): 100; Plant response rating, Pigweed ([6]; 500 g ai/ha): 100; Plant response rating, Barnyardgrass ([7]; 500 g ai/ha): 50; Plant response rating, Kochia (kochia (Kochia scoparia) [8]; 500 g ai/ha): 100; Plant response rating, Ragweed ([9]; 500 g ai/ha): 50; Plant response rating, Ryegrass, Italian ([10]; 500 g ai/ha): 0; Plant response rating, Foxtail, Giant ([11]; 500 g ai/ha): 30; Plant response rating, Pigweed ([12]; 500 g ai/ha): 70; Plant response rating, Wheat ([13]; 500 g ai/ha): 0; Plant response rating, Corn (corn (Zea mays); 500 g ai/ha): 10; Plant response rating, Blackgrass ([14]; 500 g ai/ha): 20; Plant response rating, Galium ([15]; 500 g ai/ha): 80
